Source: patent publication US9370474B2, “High-clarity aqueous concentrates of 4-hexylresorcinol” (JOHNSON & JOHNSON CONSUMER INC., priority 2009, dated 2016)

Columns and labels:
[1] = Clarity of mixtures of resorcinol/phenol analogues with water; assay type: physicochemical; settings: separately mixed with water at 50% and 75% concentrations
From the text: 4-Octylresorcinol and 3-methoxyphenol (from Sigma-Aldrich of St. Louis, Mo.) were separately mixed with water at 50% and 75% concentrations.

[2] = cited from earlier work

SMILES	Clarity / appearance of mixtures with water [1]	Water solubility (prior art characterization) [2]
COc1cccc(O)c1 [3-methoxyphenol]	None of the mixtures were clear	
CCCCCCCCc1ccc(O)cc1O [4-Octylresorcinol]	None of the mixtures were clear	
CCCCCCc1ccc(O)cc1O [Example 4-HR, 4-Hexylresorcinol]		water-insoluble
